Measurements reported in patent US20260015350A1, “AZAQUINAZOLINE PAN-KRAS INHIBITORS” (Mirati Therapeutics, Inc., priority 2022, published 2026).

Columns and labels:
[1] = target: T1, KRas^WT (Homo sapiens, UniProt P01116); assay: KRas binding assay (TR-FRET tracer displacement), KRas WT; settings: TR-FRET tracer displacement, KRas WT
T1 construct: Biotinylated KRas (corresponding to amino acids 1-169, produced at Accelegan Inc.); biotin (biotinylated); purchased Accelegan Inc

[2] = target: T2, KRas^G12R (Homo sapiens, UniProt P01116, G12R); assay: KRas binding assay (TR-FRET tracer displacement), KRas G12R
T2 construct: Biotinylated KRas (corresponding to amino acids 1-169, produced at Accelegan Inc.); biotin (biotinylated); purchased Accelegan Inc
T2 sequence (P01116 1-169 isoform P01116-2 G12R): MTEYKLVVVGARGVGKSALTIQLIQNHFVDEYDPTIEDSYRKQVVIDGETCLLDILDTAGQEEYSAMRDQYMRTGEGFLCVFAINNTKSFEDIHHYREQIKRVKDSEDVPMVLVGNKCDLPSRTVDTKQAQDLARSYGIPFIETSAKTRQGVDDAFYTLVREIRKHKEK

[3] = target: T3, KRas^G12C (Homo sapiens, UniProt P01116, G12C); assay: KRas binding assay (TR-FRET tracer displacement), KRas G12C; settings: TR-FRET tracer displacement, KRas G12C
T3 construct: Biotinylated KRas (corresponding to amino acids 1-169, produced at Accelegan Inc.); biotin (biotinylated); purchased Accelegan Inc
T3 sequence (P01116 1-169 isoform P01116-2 G12C): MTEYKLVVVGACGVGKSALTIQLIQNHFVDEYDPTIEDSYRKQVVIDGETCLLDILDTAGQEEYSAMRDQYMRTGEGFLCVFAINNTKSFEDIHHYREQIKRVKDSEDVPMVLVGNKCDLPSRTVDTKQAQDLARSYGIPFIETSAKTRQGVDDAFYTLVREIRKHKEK

[4] = target: T4, KRas^G12V (Homo sapiens, UniProt P01116, G12V); assay: KRas binding assay (TR-FRET tracer displacement), KRas G12V
T4 construct: Biotinylated KRas (corresponding to amino acids 1-169, produced at Accelegan Inc.); biotin (biotinylated); purchased Accelegan Inc
T4 sequence (P01116 1-169 isoform P01116-2 G12V): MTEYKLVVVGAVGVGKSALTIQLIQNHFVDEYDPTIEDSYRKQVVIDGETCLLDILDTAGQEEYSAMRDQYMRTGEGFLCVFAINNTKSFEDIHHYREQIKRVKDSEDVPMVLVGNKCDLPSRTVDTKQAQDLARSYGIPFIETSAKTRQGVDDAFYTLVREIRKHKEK

[5] = target: T5, KRas^G12S (Homo sapiens, UniProt P01116, G12S); assay: KRas binding assay (TR-FRET tracer displacement), KRas G12S; settings: TR-FRET tracer displacement, KRas G12S
T5 construct: Biotinylated KRas (corresponding to amino acids 1-169, produced at Accelegan Inc.); biotin (biotinylated); purchased Accelegan Inc
T5 sequence (P01116 1-169 isoform P01116-2 G12S): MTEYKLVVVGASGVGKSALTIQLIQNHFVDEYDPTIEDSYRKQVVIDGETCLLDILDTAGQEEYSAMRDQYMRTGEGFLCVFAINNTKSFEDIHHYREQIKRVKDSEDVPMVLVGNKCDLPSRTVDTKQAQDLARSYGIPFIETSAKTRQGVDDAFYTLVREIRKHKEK

[6] = target: T6, KRas^Q61H (Homo sapiens, UniProt P01116, Q61H); assay: KRas binding assay (TR-FRET tracer displacement), KRas Q61H; settings: TR-FRET tracer displacement, KRas Q61H
T6 construct: Biotinylated KRas (corresponding to amino acids 1-169, produced at Accelegan Inc.); biotin (biotinylated); purchased Accelegan Inc
T6 sequence (P01116 1-169 isoform P01116-2 Q61H): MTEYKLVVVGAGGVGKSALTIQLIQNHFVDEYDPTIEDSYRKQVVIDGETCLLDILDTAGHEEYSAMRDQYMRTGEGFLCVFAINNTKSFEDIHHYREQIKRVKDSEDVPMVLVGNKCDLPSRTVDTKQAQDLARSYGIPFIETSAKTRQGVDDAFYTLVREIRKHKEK

[7] = target: T7, KRas^G12A (Homo sapiens, UniProt P01116, G12A); assay: KRas binding assay (TR-FRET tracer displacement), KRas G12A; settings: TR-FRET tracer displacement, KRas G12A
T7 construct: Biotinylated KRas (corresponding to amino acids 1-169, produced at Accelegan Inc.); biotin (biotinylated); purchased Accelegan Inc
T7 sequence (P01116 1-169 isoform P01116-2 G12A): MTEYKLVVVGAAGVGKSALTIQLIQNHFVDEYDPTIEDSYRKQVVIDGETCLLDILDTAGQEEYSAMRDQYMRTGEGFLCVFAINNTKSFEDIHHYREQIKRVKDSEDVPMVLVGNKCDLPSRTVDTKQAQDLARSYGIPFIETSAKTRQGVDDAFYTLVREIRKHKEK

[8] = target: T8, KRas^G13D (Homo sapiens, UniProt P01116, G13D); assay: KRas binding assay (TR-FRET tracer displacement), KRas G13D; settings: TR-FRET tracer displacement, KRas G13D
T8 construct: Biotinylated KRas (corresponding to amino acids 1-169, produced at Accelegan Inc.); biotin (biotinylated); purchased Accelegan Inc
T8 sequence (P01116 1-169 isoform P01116-2 G13D): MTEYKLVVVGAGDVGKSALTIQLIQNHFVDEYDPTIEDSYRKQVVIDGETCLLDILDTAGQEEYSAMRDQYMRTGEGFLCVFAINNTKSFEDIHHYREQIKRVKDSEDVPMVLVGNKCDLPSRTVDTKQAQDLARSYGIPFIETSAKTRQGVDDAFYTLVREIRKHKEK

[9] = target: T9, KRas^G12D (Homo sapiens, UniProt P01116, G12D); assay: KRas binding assay (TR-FRET tracer displacement), KRas G12D
T9 construct: Biotinylated KRas (corresponding to amino acids 1-169, produced at Accelegan Inc.); biotin (biotinylated); purchased Accelegan Inc
T9 sequence (P01116 1-169 isoform P01116-2 G12D): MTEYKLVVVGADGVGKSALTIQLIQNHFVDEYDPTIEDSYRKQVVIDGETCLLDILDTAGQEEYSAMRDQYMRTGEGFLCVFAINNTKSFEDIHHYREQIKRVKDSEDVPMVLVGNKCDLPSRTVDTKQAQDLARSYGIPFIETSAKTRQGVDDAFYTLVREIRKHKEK

[10] = tested on: KRas-mediated phosphorylation of ERK in MKN1 cells; assay: Inhibition of KRas-mediated phosphorylation of ERK (Cisbio HTRF pERK), MKN1 cells; type: cell-based; settings: Homo sapiens, MKN-1
How it was run: (§1)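 Day 1 seeding: 6,000 cells per well, RPMI/10% FBS, left overnight at 37° C. with 5% CO2. Plates then stood covered for 4 h at room temperature prior to HTRF detection of pERK.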

[11] = tested on: KRas-mediated phosphorylation of ERK in PSN1 cells; assay: Inhibition of KRas-mediated phosphorylation of ERK (Cisbio HTRF pERK), PSN1 cells; type: cell-based; settings: Homo sapiens
How it was run: as §1

[12] = tested on: KRas-mediated phosphorylation of ERK in H460 cells; assay: Inhibition of KRas-mediated phosphorylation of ERK (Cisbio HTRF pERK), H460 cells; type: cell-based; settings: Homo sapiens, NCI-H460, HTRF pERK
How it was run: (§2)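 Phosphorylated ERK was quantified by HTRF using d2-conjugate and Cryptate antibodies added to lysates for 2 hrs at room temperature.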

[13] = tested on: KRas-mediated phosphorylation of ERK in A549 cells; assay: Inhibition of KRas-mediated phosphorylation of ERK (Cisbio HTRF pERK), A549 cells; type: cell-based; settings: Homo sapiens, HTRF pERK
How it was run: (§3)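 Following a 3-hr exposure of cells to serially diluted compound (from 10 uM, 3-fold, 10 doses), cold lysis for 40 mins preceded a 2-hr room-temperature HTRF immunoassay for phosphorylated ERK.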

[14] = tested on: KRas-mediated phosphorylation of ERK in AsPC-1 cells; assay: Inhibition of KRas-mediated phosphorylation of ERK (Cisbio HTRF pERK), AsPC-1 cells; type: cell-based; settings: Homo sapiens, ASPC1, AsPC-1 cells; HTRF pERK
How it was run: as §2

[15] = tested on: KRas-mediated phosphorylation of ERK in H727 cells; assay: Inhibition of KRas-mediated phosphorylation of ERK (Cisbio HTRF pERK), H727 cells; type: cell-based; settings: Homo sapiens, NCI-H727, H727 cells; HTRF pERK
How it was run: as §2

[16] = tested on: KRas-mediated phosphorylation of ERK in HCT116 cells; assay: Inhibition of KRas-mediated phosphorylation of ERK (Cisbio HTRF pERK), HCT116 cells; type: cell-based; settings: Homo sapiens, HCT-116, HTRF pERK
How it was run: as §3

[17] = tested on: KRas-mediated phosphorylation of ERK in H358 cells; assay: Inhibition of KRas-mediated phosphorylation of ERK (Cisbio HTRF pERK), H358 cells; type: cell-based; settings: Homo sapiens, NCI-H358, HTRF pERK
How it was run: as §2

T1 sequence (P01116 1-169 isoform P01116-2): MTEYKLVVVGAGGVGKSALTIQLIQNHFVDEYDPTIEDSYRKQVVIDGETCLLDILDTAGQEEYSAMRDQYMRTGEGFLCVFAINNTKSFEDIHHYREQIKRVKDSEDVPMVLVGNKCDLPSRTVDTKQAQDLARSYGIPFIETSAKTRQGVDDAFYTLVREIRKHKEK

Cc1cc2[nH]nnc2c(-c2ncc3c(N4CCOC[C@@](C)(O)C4)nc(OCC45CCCN4CCC5)nc3c2F)c1C [Example 822, (6S)-4-(7-(5,6-dimethyl-1H-benzo[d][1,2,3]triazol-4-yl)-8-fluoro-2-((tetrahydro-1H-pyrrolizin-7a(5H)-yl)methoxy)pyrido[4,3-d]pyrimidin-4-yl)-6-methyl-1,4-oxazepan-6-ol]
IC50 [1]: 5420 nM
IC50 [2]: 9670 nM
IC50 [3]: 4080 nM
IC50 [4]: 3430 nM
IC50 [5]: 4660 nM
IC50 [6]: 5660 nM
IC50 [7]: 4980 nM
IC50 [8]: 5410 nM
IC50 [9]: 2180 nM

Cc1cc2[nH]nnc2c(-c2ncc3c(N4CCCC5(C4)NC(=O)NC5=O)nc(OCC45CCCN4CCC5)nc3c2F)c1C (centres unmarked) [Example 823, 7-(7-(5,6-dimethyl-1H-benzo[d][1,2,3]triazol-4-yl)-8-fluoro-2-((tetrahydro-1H-pyrrolizin-7a(5H)-yl)methoxy)pyrido[4,3-d]pyrimidin-4-yl)-1,3,7-triazaspiro[4.5]decane-2,4-dione]
IC50 [1]: 1420 nM
IC50 [2]: 1380 nM
IC50 [3]: 1300 nM
IC50 [4]: 922 nM
IC50 [5]: 1370 nM
IC50 [6]: 1390 nM
IC50 [7]: 1430 nM
IC50 [8]: 1270 nM
IC50 [9]: 2220 nM

Cc1cc2[nH]nnc2c(-c2ncc3c(N4C[C@@H]5C[C@H](C4)[C@H](O)C5)nc(OCC45CCCN4CCC5)nc3c2F)c1C [Example 832, (1R,5R,6R)-3-(7-(5,6-dimethyl-1H-benzo[d][1,2,3]triazol-4-yl)-8-fluoro-2-((tetrahydro-1H-pyrrolizin-7a(5H)-yl)methoxy)pyrido[4,3-d]pyrimidin-4-yl)-3-azabicyclo[3.2.1]octan-6-ol]
IC50 [1]: 4590 nM
IC50 [2]: 6410 nM
IC50 [3]: 3200 nM
IC50 [4]: 4550 nM
IC50 [5]: 2940 nM
IC50 [6]: 4610 nM
IC50 [7]: 3770 nM
IC50 [8]: 3880 nM
IC50 [9]: 17100 nM

Cc1cc2[nH]nnc2c(-c2ncc3c(N4CC5C(=O)NC(=O)C5C4)nc(OCC45CCCN4CCC5)nc3c2F)c1C (centres unmarked) [Example 833, 5-(7-(5,6-dimethyl-1H-benzo[d][1,2,3]triazol-4-yl)-8-fluoro-2-((tetrahydro-1H-pyrrolizin-7a(5H)-yl)methoxy)pyrido[4,3-d]pyrimidin-4-yl)tetrahydropyrrolo[3,4-c]pyrrole-1,3(2H,3aH)-dione]
IC50 [1]: 3830 nM
IC50 [2]: 9160 nM
IC50 [3]: 4490 nM
IC50 [4]: 3540 nM
IC50 [5]: 1860 nM
IC50 [6]: 3670 nM
IC50 [7]: 5130 nM
IC50 [8]: 2820 nM
IC50 [9]: 1080 nM

CCc1c(F)ccc2cc(O)cc(-c3ncc4c(N5CC=CCC5)nc(OC[C@@]56CCCN5C[C@H](F)C6)nc4c3F)c12 [Example 921, 4-(4-(3,6-dihydropyridin-1(2H)-yl)-8-fluoro-2-(((2R,7aS)-2-fluorotetrahydro-1H-pyrrolizin-7a(5H)-yl)methoxy)pyrido[4,3-d]pyrimidin-7-yl)-5-ethyl-6-fluoronaphthalen-2-ol]
IC50 [10]: 0.4 nM
IC50 [11]: 7630 nM
IC50 [1]: 4 nM
IC50 [3]: 2 nM
IC50 [12]: 75 nM
IC50 [4]: 2 nM
IC50 [13]: 68 nM
IC50 [5]: 2 nM
IC50 [14]: 92 nM
IC50 [15]: 86 nM
IC50 [16]: 309 nM
IC50 [17]: 33 nM
IC50 [9]: 4 nM

CCc1c(F)ccc2cc(O)cc(-c3ncc4c(N5C[C@@H]6C[C@H](C5)[C@H](O)C6)nc(OCC56CCCN5CC5(CC5)C6)nc4c3F)c12 (stereo partly drawn) [Example 931, (1R,5R,6R)-3-(2-((dihydro-1′H,3′H-spiro[cyclopropane-1,2′-pyrrolizin]-7a′ (5′H)-yl)methoxy)-7-(8-ethyl-7-fluoro-3-hydroxynaphthalen-1-yl)-8-fluoropyrido[4,3-d]pyrimidin-4-yl)-3-azabicyclo[3.2.1]octan-6-ol]
IC50 [10]: 0.9 nM
IC50 [11]: 2280 nM
IC50 [1]: < 2 nM
IC50 [3]: < 2 nM
IC50 [12]: 15 nM
IC50 [4]: < 2 nM
IC50 [13]: 17 nM
IC50 [5]: < 2 nM
IC50 [14]: 58 nM
IC50 [15]: 59 nM
IC50 [16]: 72 nM
IC50 [17]: 5 nM
IC50 [9]: < 2 nM
